In patent US20030139609A1, “Aziridinyl quinone antitumor agents based on indoles and cyclopent[b]indoles” (priority 2001, published 2003):
Where “and” joins values, the source holds several entries; their conditions need not be identical. Equal entries are not always repeated. Where two headings read alike, the source gives them in different places.

Experiments:
600 bp calf thymus DNA = experiment: DNA reductive alkylation by catalytically reduced aziridinyl quinones; type: biochemical; conditions: for DNA alkylation percentage: catalytic reduction, anaerobic, pH 7.4 tris buffer, 30° C., 24 h, absorbance at 550 nm
Procedure: DNA Alkylation Screening of Series 1-9. The extent of DNA reductive alkylation was determined by catalytic reduction of the aziridinyl quinones in the presence of 600 bp calf thymus DNA. Oxidative workup afforded DNA colored blue as a result of the aminoquinone chromophore. […] The anaerobic conditions employed for DNA reductive alkylation assays is not meant to mimic the environment of tumor cells. These conditions do permit an accurate assessment of the structural requirements for DNA alkylation by the hydroquinone species. To be sure, agents incapable of akylating DNA under these ideal conditions will not do so in the typical cellular environment.
Alkylation of DNA by Reduced Indoloquinones. To a mixture of 1-2 mg of sonicated (600 bp) calf thymus DNA in 2.0 mL of 0.05 M of pH 7.4 tris buffer and 2 mg of Pd on carbon was added a five-to-one base pair equivalent amount of the indoloquinone dissolved in 0.5 mL of dimethylsulfoxide. The resulting solution was degassed under argon for 30 min., after which the mixture was purged with H2 for 10 min. The solution was then purged with argon for 10 min. and placed in a 30° C. bath for 24 h. The reaction was opened to the air and the catalyst was removed with a Millex-PF […] syringe filter. The filtrate was adjusted to 0.3 M acetate with a 3 M stock solution of pH 5.1 acetate and then diluted with two volumes of ethanol. The mixture was chilled at −20° C. for 12 h and the DNA pellet collected by centrifuging at 12,000 g for 20 min. The pellet was redissolved in water and then precipitated and centrifuged again. The resulting blue or red pellet was suspended in ethanol, centrifuged, and dried. The dried pellet was weighed and dissolved in 1 mL of double distilled water resulting in a clear colored solution with […]max˜550 nm, □˜750 M^−1 cm^−1. This is the chromophore of the aminoquinone resulting from nucleophile-mediated opening of the aziridine ring. Model 2′-chloroethyl aminoquinones for extinction coefficient determination were prepared by treatment of the indoloquinone with HCl. {Skibo, E. B. and Xing, C., Chemistry and DNA Alkylation Reactions of Aziridinyl Quinones: Development of an Efficient Alkylating Agent of the Phosphate Backbone, Biochemistry, 1998, 37, 15199-15213}.

[1] = test system: NCI-H460 non-small-lung cancer cell line; experiment: NCI In Vitro Cell Line Screening, NSC H460 cell line; type: cell-based; conditions: for Log TGI NSC H460: concentration for total growth inhibition; for GI50 / CC50: Homo sapiens
From the text: Cytotoxic and Cytostatic Screening of Series 1-9.

[2] = test system: National Cancer Institute 60-cell line; experiment: NCI 60-cell line in vitro screen (average cytotoxicity and cancer specificity); conditions: for Average Log LC50 60-Cell Line: mean over 60 cell lines, ± value measures cancer specificity
Procedure: Cytotoxic and Cytostatic Screening of Series 1-9. […] The cytostatic parameters include GI50 and TGI, which are the concentrations of drug required for 50% growth inhibition and total growth inhibition, respectively. The cytotoxic parameter is the LC50, which is the concentration required for 50% cell kill.
4. […] Cancer specificity is measured from the ± value under the “Average Log LC50 60-Cell Line” heading of Table 5. A ± value greater than 2 indicates a greater than 100-fold higher/lower cytotoxicity in some histological cancer types compared to the mean cytotoxicity.
The DT-diaphorase levels in the National Cancer Institute 60-cell line in vitro screen have been determined and correlated with the cytotoxicity of antitumor agents activated by 2-electron reduction. {Fitzsimmons, S. A., Workman, P., Grever, M., Paull, K., Camalier, R., and Lewis, A. D., Reductase Enzyme Expression Across the National Cancer Institute Tumor Cell Line Panel: Correlation with Sensitivity To Mitomycin C and EO9, J. Natl. Cancer Inst., 1996, 88, 259-69}. Sensitive cancers usually include NSC lung and colon cancers (and to a lesser extent CNS, melanoma, and renal cancers) by virtue of their elevated DT-diaphorase levels.

B16 melanoma = experiment: animal or person; type: in vivo; conditions: for in vivo toxicity (in words) / in vivo antitumor activity (in words): 2, 3 or 5 mg/kg/day; for response vs control in vivo at 2 mg/kg / response vs control in vivo at 3 mg/kg / response vs control in vivo at 5 mg/kg: Mus musculus, B16, 600 h, read-out: In vivo T/C (Treated/Control)
From the text: Shown in Tables 6 and 7 are B16 melanoma syngraft assays {Griswold, D. P., Consideration of the Subcutaneously Implanted B16 Melanoma as a Screening Model for Potential Anticancer Agents, Cancer Chemother Reports, 1972, 3, 315-324} of some members of Series 1-9, as well as related compounds previously reported from this laboratory. {Xing, C. G., Wu, P., Skibo, E. B., and Dorr, R. T., Design of cancer-specific antitumor agents based on aziridlinylcyclopent[b]indoloquinones, J. Med. Chem., 2000, 43, 457-466}. Each agent was evaluated at three doses in C57/bl mice: 2, 3 or 5 mg/kg/day, on days 1, 5, and 9 after subcutaneous tumor implantation of 10^5 cells in the front flank on day 0. “Toxic” means that there was early lethality, or ≧50% lethality prior to any deaths in the control group. The treated over control values (T/C) were measured at day 25 of the study. A T/C value <40% is considered active.
In vivo Evaluation. The B-16 melanoma in C57/bl mice syngraft model was employed to determine in vivo activity. {Griswold, D. P., Consideration of the Subcutaneously Implanted B16 Melanoma as a Screening Model for Potential Anticancer Agents, Cancer Chemother Reports, 1972, 3, 315-324}. Each agent was evaluated at three doses: 2, 3 or 5 mg/kg/day, on days 1, 5, and 9 after subcutaneous tumor implantation of 10^5 cells in the front flank on day 0. “Toxic” means that there was early lethality, or ≧50% lethality prior to any deaths in the control group. The treated over control values (T/C) were measured at day 25 of the study. A T/C value<40% is considered active. […] The control was obtained with drug-free animals.

[3] = NCI-H460, concentration for 50% growth inhibition, read-out: Log GI50 NSC H460 (converted)
[4] = NCI-H460, read-out: Log LC50 NSC H460, concentration for 50% cell kill (converted)
[5] = 5 mg/Kg/Day on days 1, 5, 9, T/C at day 25, <40% active
[6] = 2 mg/Kg/Day on days 1, 5, 9, T/C at day 25, <40% active
[7] = 3 mg/Kg/Day on days 1, 5, 9, T/C at day 25, <40% active
[8] = NCI-H460, read-out: Log GI50 NSC H460 (converted)

## 6-Aziridinyl-3-(hydroxymethyl)-2-methylcarboxylindol-4,7-dione [Compound 9b]
600 bp calf thymus DNA
  % of DNA bases reductively activated: 2%
  DNA alkylation percentage: 2.2%
[1]; concentration for 50% cell kill
  Log LC50 NSC H460: −5.21 and −4.95
[1]; concentration for 50% growth inhibition
  Log GI50 NSC H460: −5.90 and −5.80
[1]
  Log TGI NSC H460: −5.55 and −5.39
[2]
  Average Log LC50 60-Cell Line: −5.20 ± 1.04 and −5.32 ± 1.14
[2]; text b52, FIG. 4
  cytostatic/cytotoxic activity versus histological cancer type (in words): significant cytotoxic and cytostatic properties

## O=C1C=C(N2CC2)C(=O)c2c1[nH]c1c2CCC1O (stereo not shown) [Compound 1a, 7-Aziridinyl-3-hydroxy-1,2,3,4-tetrahydrocyclopent[b]indole-5,8-dione]
600 bp calf thymus DNA
  DNA alkylation percentage: 22.5%
[1]; [3]
  GI50: 10 nM
[1]; [4]
  CC50: 295 nM
[1]
  Log TGI NSC H460: −6.99
[2]
  Average Log LC50 60-Cell Line: −5.66 ± 1.52

## CC1=C(N2CC2)C(=O)c2c([nH]c3c2CCC3O)C1=O (stereo not shown) [Compound 2a, 7-Aziridinyl-3-hydroxy-6-methyl-1,2,3,4-tetrahydrocyclopent[b]indole-5,8-dione]
600 bp calf thymus DNA
  DNA alkylation percentage: 11.2%
[1]; [3]
  GI50: 10 nM

## CC(=O)OC1CCc2c1[nH]c1c2C(=O)C=C(N2CC2)C1=O (stereo not shown) [Compound 3b, 3-Acetoxy-6-aziridinyl-1,2,3,4-tetrahydrocyclopent[b]indole-5,8-dione]
600 bp calf thymus DNA
  DNA alkylation percentage: 29%
B16 melanoma; [5]
  In vivo T/C (Treated/Control): Toxic (“Toxic” means ≧ 50% lethality before any control growth deaths)

## CC(=O)OC1CCc2c3c(n(C(C)=O)c21)C(=O)C(N1CC1)=CC3=O (stereo not shown) [Compound 3c, 6-Aziridinyl-3-acetoxy-4-acetyl-1,2,3,4-tetrahydrocyclopent[b]indole-5,8-dione]
B16 melanoma
  in vivo toxicity (in words): toxic
  response vs control in vivo at 2 mg/kg: > 50%
  response vs control in vivo at 3 mg/kg: > 50%
  response vs control in vivo at 5 mg/kg: > 50%

## CC1=C(N2CC2)C(=O)c2[nH]c3c(c2C1=O)CCC3O (stereo not shown) [Compound 4a]
600 bp calf thymus DNA
  DNA alkylation percentage: 10%
[1]; [3]
  GI50: 10 nM
[1]; [4]
  CC50: 100000 nM
[1]
  Log TGI NSC H460: −6.97
B16 melanoma
  in vivo toxicity (in words): without any toxicity
B16 melanoma; [6]
  response vs control in vivo at 2 mg/kg: 75%
B16 melanoma; [7]
  response vs control in vivo at 3 mg/kg: 45%

## O=C1C=C(N2CC2)C(=O)c2c1[nH]c(CO)c2CO [Compound 6a, 5-Aziridinyl-2,3-di(hydroxymethyl)indole-4,7-dione]
600 bp calf thymus DNA
  DNA alkylation percentage: 16.7%
B16 melanoma; [6]
  In vivo T/C (Treated/Control): Toxic (“Toxic” means ≧ 50% lethality before any control growth deaths)
B16 melanoma; [7]
  In vivo T/C (Treated/Control): Toxic (“Toxic” means ≧ 50% lethality before any control growth deaths)
B16 melanoma; [5]
  In vivo T/C (Treated/Control): Toxic (“Toxic” means ≧ 50% lethality before any control growth deaths)

## CCOC(=O)c1[nH]c2c(c1CO)C(=O)C(N1CC1)=CC2=O [Compound 6c, 5-Aziridinyl-2-ethylcarboxyl-3-(hydroxymethyl)indole-4,7-dione]
[1]; [8]
  GI50: 10 nM
[1]; [4]
  CC50: 631 nM
[1]; NCI-H460, read-out: −log LC50 value, H460 cell line (converted)
  CC50: 631 nM
[1]
  Log TGI NSC H460: −7 and −6.95
[2]
  Average Log LC50 60-Cell Line: −5.79 ± 1.98

## CC(=O)OCc1[nH]c2c(c1COC(C)=O)C(=O)C(N1CC1)=CC2=O [Compound 6e, 5-Aziridinyl-2,3-di(acetoxymethyl)indole-4,7-dione]
600 bp calf thymus DNA
  DNA alkylation (in words): high DNA alkylation percentages
  DNA alkylation percentage: 43%

## CCOC(=O)c1[nH]c2c(c1CO)C(=O)C(N1CC1)=C(C)C2=O [Compound 7b, 5-Aziridinyl-2-ethylcarboxyl-3-hydroxymethyl-6-methylindole-4,7-dione]
[1]; [8]
  GI50: 10 nM
[1]
  Log TGI NSC H460: −7.99 and −7.96
[2]
  Average Log LC50 60-Cell Line: −5.69 ± 2.31 and −5.75 ± 2.25

## CC1=C(N2CC2)C(=O)c2[nH]c(CO)c(CO)c2C1=O [Compound 8a, 6-Aziridinyl-2,3-di(hydroxymethyl)-5-methylindole-4,7-dione]
600 bp calf thymus DNA
  DNA alkylation percentage: 4%
B16 melanoma; [7]
  In vivo T/C (Treated/Control): Toxic (“Toxic” means ≧ 50% lethality before any control growth deaths)
B16 melanoma; [5]
  In vivo T/C (Treated/Control): Toxic (“Toxic” means ≧ 50% lethality before any control growth deaths)
B16 melanoma; [6]
  response vs control in vivo at 2 mg/kg: 54%

## COC1CCc2c1[nH]c1c2C(=O)C(C)=C(N2CC2)C1=O (stereo not shown) [reference compound]
B16 melanoma
  in vivo toxicity (in words): toxicity only seen at the highest dose

## CC1=C(N2CC2)C(=O)c2[nH]c(C)c(C)c2C1=O [reference compound]
B16 melanoma
  response vs control in vivo at 2 mg/kg: 22%
  response vs control in vivo at 3 mg/kg: > 50%
  response vs control in vivo at 5 mg/kg: > 50%

## CC1=C(N2CC2)C(=O)c2c([nH]c(C)c2C)C1=O [reference compound]
B16 melanoma; [5]
  In vivo T/C (Treated/Control): Toxic (“Toxic” means ≧ 50% lethality before any control growth deaths)
B16 melanoma; [6]
  response vs control in vivo at 2 mg/kg: 10%
B16 melanoma; [7]
  response vs control in vivo at 3 mg/kg: 60%

## CC1=C(N2CC2)C(=O)c2[nH]c(CO)c(C)c2C1=O [reference compound]
B16 melanoma
  in vivo antitumor activity (in words): antitumor activity is retained
  in vivo toxicity (in words): without much toxicity
B16 melanoma; [6]
  response vs control in vivo at 2 mg/kg: 61%
B16 melanoma; [7]
  response vs control in vivo at 3 mg/kg: 37%
B16 melanoma; [5]
  response vs control in vivo at 5 mg/kg: 34%

## CC(=O)OCc1[nH]c2c(c1C)C(=O)C(C)=C(N1CC1)C2=O [reference compound]
B16 melanoma
  in vivo antitumor activity (in words): inactive at all doses

## CC(=O)OCc1[nH]c2c(c1C)C(=O)C(N1CC1)=C(C)C2=O [reference compound]
B16 melanoma; [7]
  In vivo T/C (Treated/Control): Toxic (“Toxic” means ≧ 50% lethality before any control growth deaths)
B16 melanoma; [5]
  In vivo T/C (Treated/Control): Toxic (“Toxic” means ≧ 50% lethality before any control growth deaths)
B16 melanoma; [6]
  response vs control in vivo at 2 mg/kg: 47%
